The nature of series [1]: Confocal imaging of skin sections from psoriasis patients with lesions treated with Pc 4 versus Pc 4 plus red light. Conditions: for location of Pc 4 fluorescence in skin: psoriasis lesions. It is filed as in vivo, human. The procedure:
FIG. 2 includes 4 sets of images obtained from confocal imaging of skin sections from two psoriasis patients with lesions to which Pc 4 (0.1 mg/ml) versus Pc 4 (0.1 mg/ml) plus 100 J/cm2 of red light (675 nm) was applied.
(§1) When treating skin, the area of skin can be covered with an opaque dressing during the interval of time between the first and second photoirradiation to prevent further activation of the photosensitizer by ambient light. While not intending to be bound by theory, the first photoirradiation may increase the ability of the photosensitizing agent to penetrate tissue as a result of breaking up aggregates of the photosensitizing agent and/or by disrupting the tissue barrier as a result of the release of reactive oxygen species. Accordingly, this first photoirradiation can also be referred to as the disruptive photoirradiation, or light pretreatment. The ability of light pretreatment to facilitate the penetration of photosensitizer to lower levels of skin is illustrated by FIGS. 1 and 2.
A variety of methods are available to determine the amount of energy and/or time necessary for an effective amount of the photosensitizer to reach the desired tissue level, such as a lower level of the skin, under the conditions being used. Such methods can be referred to as photosensitizer localization assays. For example, a biopsy can be obtained after administration of the photosensitizer from which the photosensitizer is chemically extracted and quantified using conventional analytic techniques such as UV spectrophotometry. The photosensitizer (e.g., Pc 4) can also be identified from biopsy samples using confocal imaging of the fluorescence of the photosensitizer either with or without the use of additional labels targeted at specific intracellular components (e.g., DAPI, mitotracker). Such techniques can be helpful to determine therapeutically effective doses, and also to evaluate non-responding subjects for possible poor photosensitizer permeation through the skin or other complications.

Series [2] in a line: Pc 4 fluorescence after topical application on mouse ear skin, with or without an initial light dose. The note with it: Pc 4 0.1 mg/mL topical on mouse ear skin, initial small light dose 50 J/cm2, versus 15 minutes of topical application without light. It is filed as in vivo.
Text: FIG. 1 is a pair of photographs showing that photoirradiation of mouse ear skin to which Pc 4 had been topically applied facilitates Pc 4 penetration into the skin.
as §1

The conditions of series [3]: human skin 1-2 hours after Pc 4 applied, no light pretreatment; cited from earlier work.
Series [4] in a line: Time interval for delivery of photosensitizer through skin, with or without first photoirradiation. The format is in vivo. Conditions: after a first photoirradiation. From the text: Once the first photoirradiation has been delivered to the area of tissue, a sufficient interval of time should be allowed to pass for an effective amount of the photosensitizer to further penetrate the tissue. In the case of skin tissue, a sufficient interval of time is preferably provided to allow the photosensitizer to reach the lower levels of skin such as the basal epidermis and/or the papillary dermis, which is the upper layer of the dermis immediately beneath the epidermis. The particular layer of skin targeted can vary depending on the disease being treated. Examples of sufficient intervals include 1 hour, 30 minutes, 10 minutes, 5 minutes, or any other interval within this range. In addition to providing sufficient time for the photosensitizer to penetrate the skin to the desired level, care should also be taken to avoid providing too much time, which can result in passage of significant amounts of the photosensitizer beyond the intended site.

The conditions of series [5]: used topically on skin lesions; cited from earlier work.

For `CN(C)CCC[Si](C)(C)O[Si]1(O)n2c3c4ccccc4c2N=C2N=C(N=c4c5ccccc5c(n41)=NC1=NC(=N3)c3ccccc31)c1ccccc12` (stereo not shown) [Pc 4, HOSiPcOSi(CH3)2(CH2)3N(CH3)2], the “location of Pc 4 fluorescence in skin” value is “limited to the stratum corneum” in series [1] (Pc 4 0.1 mg/ml alone, after more than one hour of application); “not only in the stratum corneum but also in the epidermis and upper dermis” in series [1] (Pc 4 0.1 mg/ml for 1 hour followed by 100 J/cm2 red light (675 nm)). The “Pc 4 fluorescence in the cells within the epidermis and upper dermis (higher magnification)” value in series [1] (Pc 4 + light (100 J/cm2, 675 nm)) is given as “there is indeed Pc 4 fluorescence”; in series [1] (Pc 4 alone), “not observed”. Moreover, the “absorption of Pc 4 into the epidermis and upper dermis” value in series [1] (initial dose of light on psoriatic lesions in humans to which Pc 4 has been applied) is reported as “facilitates the absorption”. Moreover, the “depth of Pc 4 in skin (Pc 4 fluorescence)” value in series [2] is “enhanced”. Besides, in series [3], the “absorption in the epidermis” value was “significant absorption”. In addition, the “absorption in the papillary dermis” value in series [3] is recorded as “minimal to no absorption”. The “time interval needed for delivery through skin” value in series [4] was “fifteen”. Further, the safety profile entry in series [5] is “excellent safety profile”.

The record behind these values is US9033962B2, “Photodynamic therapy including light pretreatment” (Case Western Reserve University, priority 2010, dated 2015).
